The values that follow come from ChEMBL document CHEMBL1122392, “C4-substituted 1-beta-D-ribofuranosylpyrazolo[3,4-d]pyrimidines as adenosine agonist analogues” (J Med Chem, 1983).

One experiment deals with Adenosine receptor (Rattus norvegicus, UniProt P29276+P25099+P30543+P28647). Put plainly: Displacement of [3H]CHA from rat brain adenosine receptor. A general note: Displacement assays read how much labelled ligand stays bound in the presence of the test substance.
Experiment [1] deals with Adenosine receptor (Rattus norvegicus) (UniProt P29276+P25099+P30543+P28647). Put plainly: Displacement of [3H]CHA from rat brain adenosine receptor at 10e-4 M.
Sequence of Adenosine receptor (Rattus norvegicus) (P25099 whole entry, looked up): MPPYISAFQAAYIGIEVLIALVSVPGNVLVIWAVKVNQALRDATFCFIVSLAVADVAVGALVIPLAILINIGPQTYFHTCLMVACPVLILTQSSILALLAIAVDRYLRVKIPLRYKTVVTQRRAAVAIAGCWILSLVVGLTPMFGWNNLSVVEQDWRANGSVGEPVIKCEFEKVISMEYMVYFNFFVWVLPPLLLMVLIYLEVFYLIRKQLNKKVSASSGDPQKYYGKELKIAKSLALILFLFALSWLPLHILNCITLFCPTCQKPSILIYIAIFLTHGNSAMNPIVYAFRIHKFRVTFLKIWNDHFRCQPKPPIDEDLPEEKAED
Sequence of Adenosine receptor (Rattus norvegicus) (P28647 whole entry, looked up): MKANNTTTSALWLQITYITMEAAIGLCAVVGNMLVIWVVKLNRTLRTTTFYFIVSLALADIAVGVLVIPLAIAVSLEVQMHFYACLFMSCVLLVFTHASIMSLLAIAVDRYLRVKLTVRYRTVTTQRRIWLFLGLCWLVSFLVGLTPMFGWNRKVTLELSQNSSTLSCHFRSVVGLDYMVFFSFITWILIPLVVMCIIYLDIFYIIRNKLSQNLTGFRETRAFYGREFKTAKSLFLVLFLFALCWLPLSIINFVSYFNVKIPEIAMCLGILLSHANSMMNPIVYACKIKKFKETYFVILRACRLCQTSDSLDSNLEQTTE
Sequence of Adenosine receptor (Rattus norvegicus) (P29276 whole entry, looked up): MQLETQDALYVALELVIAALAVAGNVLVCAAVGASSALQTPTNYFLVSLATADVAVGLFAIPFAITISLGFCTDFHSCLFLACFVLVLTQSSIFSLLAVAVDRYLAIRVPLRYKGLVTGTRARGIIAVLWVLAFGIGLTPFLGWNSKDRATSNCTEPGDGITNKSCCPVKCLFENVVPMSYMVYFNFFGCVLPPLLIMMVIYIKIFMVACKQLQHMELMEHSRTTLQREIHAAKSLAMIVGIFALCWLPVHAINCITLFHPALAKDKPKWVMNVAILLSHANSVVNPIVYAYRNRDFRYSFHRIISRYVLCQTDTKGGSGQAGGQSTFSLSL
Sequence of Adenosine receptor (Rattus norvegicus) (P30543 whole entry, looked up): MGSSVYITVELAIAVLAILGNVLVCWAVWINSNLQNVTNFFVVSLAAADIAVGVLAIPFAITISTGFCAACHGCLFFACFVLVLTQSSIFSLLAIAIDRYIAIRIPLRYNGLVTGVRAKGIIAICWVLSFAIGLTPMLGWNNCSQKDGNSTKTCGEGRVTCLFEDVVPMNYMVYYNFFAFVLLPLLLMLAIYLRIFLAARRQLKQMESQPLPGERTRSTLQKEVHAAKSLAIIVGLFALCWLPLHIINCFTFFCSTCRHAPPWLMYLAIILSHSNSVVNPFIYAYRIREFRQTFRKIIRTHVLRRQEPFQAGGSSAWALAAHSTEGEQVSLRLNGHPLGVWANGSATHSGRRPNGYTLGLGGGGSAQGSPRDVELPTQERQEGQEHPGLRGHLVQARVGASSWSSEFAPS

Broadly, the IC50 is the midpoint of a concentration-inhibition curve. Read a low IC50 as greater potency in that assay. At Adenosine receptor, `CCCNc1ncnc2c1cnn2C1O[C@H](CO)[C@@H](O)[C@H]1O` (stereo not given in full) registered an IC50 of 76.5 µM.
The same measure, in the same setting: with `CCCNc1ncnc2c1ncn2C1O[C@H](CO)[C@@H](O)[C@H]1O` (stereo not given in full) the figure was 0.004 µM.
The same measure, in the same setting: with `OC[C@H]1OC(n2ncc3c(NC4CCCCC4)ncnc32)[C@H](O)[C@@H]1O` (stereo not given in full) the figure was 20.2 µM.
For orientation: inhibition means the percentage by which the read-out fell short of the control. `C[C@@H](Cc1ccccc1)Nc1ncnc2c1cnn2[C@@H]1O[C@H](CO)[C@@H](O)[C@H]1O` (stereo in doubt) registered an inhibition in experiment [1] of 31%.
Consider `C[C@@H](Cc1ccccc1)Nc1ncnc2c1cnn2[C@@H]1O[C@H](CO)[C@@H](O)[C@H]1O` (stereo in doubt; 1), for which the inhibition in experiment [1] was 47%.
